In patent publication US20260258036A1, “INHIBITORS OF HUMAN ALDOSTERONE SYNTHASE (CYP11B2)” («TARGET MEDICALS» LIMITED LIABILITY COMPANY, priority 2022, published 2026):

The molecules below were run against T1, recombinant CYP11B2 (Homo sapiens, UniProt P19099) (assay: Inhibition of CYP11B2 activity in a reconstructed enzyme system (HPLC with UV detector)). Settings: compounds 1_xx; test compound final concentration ≤2 μM; corticosterone substrate; 30 minutes at 37° C.; read-out: Level of CYP11B2 activity inhibition.
T1 sequence (P19099 25-503): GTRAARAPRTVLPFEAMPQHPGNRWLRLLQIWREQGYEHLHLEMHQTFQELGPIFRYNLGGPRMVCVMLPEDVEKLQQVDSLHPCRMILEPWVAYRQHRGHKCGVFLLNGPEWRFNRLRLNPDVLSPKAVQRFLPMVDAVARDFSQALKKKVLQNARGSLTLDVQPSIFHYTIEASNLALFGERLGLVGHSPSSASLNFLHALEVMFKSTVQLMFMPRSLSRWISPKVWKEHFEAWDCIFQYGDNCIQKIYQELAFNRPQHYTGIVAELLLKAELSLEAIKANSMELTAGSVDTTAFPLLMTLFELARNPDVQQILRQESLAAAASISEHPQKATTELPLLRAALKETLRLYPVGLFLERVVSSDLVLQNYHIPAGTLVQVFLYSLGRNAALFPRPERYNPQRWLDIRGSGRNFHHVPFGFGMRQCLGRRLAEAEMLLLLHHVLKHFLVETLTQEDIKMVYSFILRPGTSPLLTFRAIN
Type: biochemical
Method: The authors of the present invention investigated the activity of the compounds according to the invention as inhibitors of CYP11 B2 when analyzed in a reconstructed system containing 0.5 μm recombinant CYP1 1B2, 0.3 μm human adrenodoxin reductase, 2 μm human adrenodoxin, 100 μm corticosterone as a control reaction to detect the formation of a product with using an HPLC system with a UV detector. The test compound is added to the reaction mixture to a final concentration of ≤2 μM. The concentrated protein mixture was diluted with buffer to a final volume of 0.5 ml, pre-incubated for 10 min at 37° C., followed by the addition of the substrate. Reactions are initiated by adding NADPH (nicotinamide adenine dinucleotide phosphate) to a final concentration of 0.25 mM with a regenerating system (glucose-6-phosphate and glucose-6-phosphate dehydrogenase) in 25 mM potassium phosphate buffer, pH 7.4, containing 0.1 mM DTT (dithiothreitol), 0.1% Tween-20.4 mM MgCl2 and incubated at 37° C. After 30 minutes of incubation, the reaction is stopped by adding 5 ml of dichloromethane. The organic phase is isolated by centrifugation, evaporation, dissolution in ethanol and transferred to a vial for HPLC studies. A C18 Luna 100 Å 250×4, 6 mm column was used on an Agilent Technologies 1200 series instrument (USA) with ethanol as the mobile phase.
Activity (a) is calculated as the amount of product in nmol per minute per 1 nmol of CYP.
where k is the correction factor (k=1 is used as the molar extinction coefficients of steroid substrates and products similar at a detection wavelength of 254 nm), As is the peak area of the substrate, cs is the concentration of the substrate, Ap is the peak area of the product, ce is the concentration of CYP (cytochrome P450), t is the reaction time.
The level of inhibition of CYP11 B2 activity is expressed as a percentage, where 0% is defined as no inhibition in reactions without test compound and 100% is absolute inhibition by test compound.

Structure (SMILES) | inhibition at 2 µM
O=S(=O)(c1cc(F)c(NC2CC2)c(F)c1)n1ccc2c(-c3ccccn3)cncc21 [Compound 1_13, N-cyclopropyl-2,6-difluoro-4-((4-(pyridin-2-yl)-1H-pyrrolo[2,3-c]pyridin-1-yl)sulfonyl)aniline] | 50 to 100%
CN(C)CCNc1c(F)cc(S(=O)(=O)n2ccc3c(-c4ccccn4)cncc32)cc1F [Compound 1_22, N1-(2,6-difluoro-4-((4-(pyridin-2-yl)-1H-pyrrolo[2,3-c]pyridin-1-yl)sulfonyl)phenyl)-N2,N2-dimethylethane-1,2-diamine] | 50 to 100%
COc1c(C)cc(S(=O)(=O)n2ccc3c(-c4ccc(C)cn4)cncc32)cc1C [Compound 1_01, 1-(4-methoxy-3,5-dimethylphenyl)sulfonyl-4-(5-methyl-2-pyridyl)pyrrolo[2,3-c]pyridine] | 50 to 100%
CN(c1c(F)cc(S(=O)(=O)n2ccc3c(-c4ccccn4)cncc32)cc1F)C1CCC1 [Compound 1_14, N-cyclobutyl-2,6-difluoro-N-methyl-4-((4-(pyridin-2-yl)-1H-pyrrolo[2,3-c]pyridin-1-yl)sulfonyl)aniline] | 50 to 100%
O=S(=O)(c1cc(F)c(O)c(F)c1)N1CCc2c(-c3ccccn3)cncc21 [Compound 1_16, 2,6-difluoro-4-((4-(pyridin-2-yl)-2,3-dehydro-H-pyrrolo[2,3-c]pyridin-1-yl)sulfonyl)phenol] | 50 to 100%
Cc1cnc(-c2cncc3c2ccn3S(=O)(=O)c2cc(F)c(N)c(F)c2)cn1 [Compound 1_32, 2,6-difluoro-4-((4-(5-methylpyrazin-2-yl)-1H-pyrrolo[2,3-c]pyridin-1-yl)sulfonyl)aniline] | 50 to 100%
O=S(=O)(c1cc(F)c(OCC2CC2)c(F)c1)n1ccc2c(-c3ccccn3)cncc21 [Compound 1_07, 1-((4-(cyclopropylmethoxy)-3,5-difluorophenyl)sulfonyl)-4-(pyridin-2-yl)-1H-pyrrolo[2,3-c]pyridine] | 50 to 100%

The remaining lines, values ahead:

inhibition at 2 µM | Structure (SMILES)
50 to 100% | CN1CCN(c2c(F)cc(S(=O)(=O)n3ccc4c(-c5ccc(C6CC6)cn5)cncc43)cc2F)CC1 [Compound 1_31, 4-(5-cyclopropylpyridin-2-yl)-1-((3,5-difluoro-4-(4-methylpiperazin-1-yl)phenyl)sulfonyl)-1H-pyrrolo[2,3-c]pyridine]
50 to 100% | CN1CCN(c2c(F)cc(S(=O)(=O)n3ccc4c(-c5ncc(F)cn5)cncc43)cc2F)CC1 [Compound 1_29, 1-((3,5-difluoro-4-(4-methylpiperazin-1-yl)phenyl)sulfonyl)-4-(5-fluoropyrimidin-2-yl)-1H-pyrrolo[2,3-c]pyridine]
50 to 100% | O=S(=O)(c1cc(F)c(N2CCOCC2)c(F)c1)n1ccc2c(-c3ccccn3)cncc21 [Compound 1_10, 4-(2,6-difluoro-4-((4-(pyridin-2-yl)-1H-pyrrolo[2,3-c]pyridin-1-yl)sulfonyl)phenyl)morpholine]

Same assay, conditions: compounds 2_xx, 3_xx, 4_01; test compound final concentration ≤2 μM; corticosterone substrate; 30 minutes at 37° C.

Structure (SMILES) | Level of CYP11B2 activity inhibition
Cl.O=S(=O)(c1cc(F)c(N2CCNCC2)c(F)c1)n1ccc2c(-c3ccccn3)cncc21 [Compound 3_27, 1-((3,5-difluoro-4-(piperazin-1-yl)phenyl)sulfonyl)-4-(pyridin-2-yl)-1H-pyrrolo[2,3-c]pyridine] | ++ (inhibition of CYP11B2 activity in the range of 20-100% (++))

Same assay, conditions: compounds 2_xx, 3_xx, 4_01; test compound final concentration ≤2 μM; corticosterone substrate; 30 minutes at 37° C.; read-out: Level of CYP11B2 activity inhibition

Structure (SMILES) | inhibition at 2 µM
O=S(=O)(c1cc(F)c(N2CC3CC2CN3)c(F)c1)n1ccc2c(-c3ccccn3)cncc21 (stereo not shown) [Compound 3_25, 1-((4-(2,5-diazabicyclo[2.2.1]heptan-2-yl)-3,5-difluorophenyl)sulfonyl)-4-(pyridin-2-yl)-1H-pyrrolo[2,3-c]pyridine] | 35 to 100%
O=S(=O)(c1cc(F)c(N2C3CCC2CNC3)c(F)c1)n1ccc2c(-c3ccccn3)cncc21 [Compound 3_26, 1-((4-(3,8-diazabicyclo[3.2.1]octan-8-yl)-3,5-difluorophenyl)sulfonyl)-4-(pyridin-2-yl)-1H-pyrrolo[2,3-c]pyridine] | 35 to 100%
CN1CC2CN(c3c(F)cc(S(=O)(=O)n4ccc5c(-c6ccc(C(=O)NC(C)(C)C)nc6)cncc54)cc3F)CC2C1 (stereo not shown) [Compound 2_03, N-(tert-butyl)-5-(1-((3,5-difluoro-4-(5-methylhexahydropyrrolo[3,4-c]pyrrol-2(1H)-yl)phenyl)sulfonyl)-1H-pyrrolo[2,3-c]pyridin-4-yl)picolinamide] | 35 to 100%

Further lines, results first:

inhibition at 2 µM | Structure (SMILES)
20 to 100% | CNc1cnc(-c2cncc3c2ccn3S(=O)(=O)c2cc(F)c(N3CCN(C)CC3)c(F)c2)nc1 [Compound 3_08, 2-(1-((3,5-difluoro-4-(4-methylpiperazin-1-yl)phenyl)sulfonyl)-1H-pyrrolo[2,3-c]pyridin-4-yl)-N-methylpyrimidin-5-amine]
35 to 100% | CNc1cnc(-c2cncc3c2ccn3S(=O)(=O)c2cc(F)c(N3CC4CN(C)CC4C3)c(F)c2)cn1 (stereo not shown) [Compound 3_22, 5-(1-((3,5-difluoro-4-(5-methylhexahydropyrrolo[3,4-c]pyrrol-2(1H)-yl)phenyl)sulfonyl)-1H-pyrrolo[2,3-c]pyridin-4-yl)-N-methylpyrazin-2-amine]
35 to 100% | O=S(=O)(c1cc(F)c(N2CCN(CC3CC3)CC2)c(F)c1)n1ccc2c(-c3ccccn3)cncc21 [Compound 2_02, 1-((4-(4-(cyclopropylmethyl)piperazin-1-yl)-3,5-difluorophenyl)sulfonyl)-4-(pyridin-2-yl)-1H-pyrrolo[2,3-c]pyridine]
35 to 100% | CN1CCN(c2c(F)cc(S(=O)(=O)n3ccc4c(-c5ccc(C#N)cn5)cncc43)cc2F)CC1 [Compound 3_06, 6-(1-((3,5-difluoro-4-(4-methylpiperazin-1-yl)phenyl)sulfonyl)-1H-pyrrolo[2,3-c]pyridin-4-yl)nicotinonitrile]
35 to 100% | CN1CC2CN(c3c(F)cc(S(=O)(=O)n4ccc5c(-c6ccc(C#N)nc6)cncc54)cc3F)CC2C1 (stereo not shown) [Compound 3_24, 5-(1-((3,5-difluoro-4-(5-methylhexahydropyrrolo[3,4-c]pyrrol-2(1H)-yl)phenyl)sulfonyl)-1H-pyrrolo[2,3-c]pyridin-4-yl)picolinonitrile]
35 to 100% | CN1CCN(c2c(F)cc(S(=O)(=O)n3ccc4c(-c5cnc(C#N)cn5)cncc43)cc2F)CC1 [Compound 3_05, 5-(1-((3,5-difluoro-4-(4-methylpiperazin-1-yl)phenyl)sulfonyl)-1H-pyrrolo[2,3-c]pyridin-4-yl)pyrazine-2-carbonitrile]
35 to 100% | CNc1ccc(-c2cncc3c2ccn3S(=O)(=O)c2cc(F)c(N3CCN(C)CC3)c(F)c2)nn1 [Compound 3_07, 6-(1-((3,5-difluoro-4-(4-methylpiperazin-1-yl)phenyl)sulfonyl)-1H-pyrrolo[2,3-c]pyridin-4-yl)-N-methylpyridazin-3-amine]
35 to 100% | O=S(=O)(c1cc(F)c(N2CCN3CCC2C3)c(F)c1)n1ccc2c(-c3ccccn3)cncc21 (stereo not shown) [Compound 3_20, 1-((4-(1,4-diazabicyclo[3.2.1]octan-4-yl)-3,5-difluorophenyl)sulfonyl)-4-(pyridin-2-yl)-1H-pyrrolo[2,3-c]pyridine]
35 to 100% | CN1CCN(c2c(F)cc(S(=O)(=O)n3ccc4c(-c5cnc(C#N)nc5)cncc43)cc2F)CC1 [Compound 3_09, 5-(1-((3,5-difluoro-4-(4-methylpiperazin-1-yl)phenyl)sulfonyl)-1H-pyrrolo[2,3-c]pyridin-4-yl)pyrimidine-2-carbonitrile]
20 to 100% | CNc1ccc(-c2cncc3c2ccn3S(=O)(=O)c2cc(F)c(N3CCN(C)CC3)c(F)c2)cn1 [Compound 3_03, 5-(1-((3,5-difluoro-4-(4-methylpiperazin-1-yl)phenyl)sulfonyl)-1H-pyrrolo[2,3-c]pyridin-4-yl)-N-methylpyridin-2-amine]
20 to 100% | O=S(=O)(c1cc(F)c(N2CCN(C3CC3)CC2)c(F)c1)n1ccc2c(-c3ccccn3)cncc21 [Compound 3_12, 1-((4-(4-cyclopropylpiperazin-1-yl)-3,5-difluorophenyl)sulfonyl)-4-(pyridin-2-yl)-1H-pyrrolo[2,3-c]pyridine]
